According to patent US9512111B2, “N-sulfonylated tetrahydroquinolines and related bicyclic compounds for inhibition of RORγ activity and the treatment of disease” (Lycera Corporation, priority 2010, dated 2016):

Biological target: T1, RORγ-LBD (Homo sapiens, UniProt P51449)
T1 construct: HIS-tagged RORγ-LBD was recombinantly expressed in SF9 cells; made in house; host or cells: SF9 cells (baculovirus); unpurified lysate
T1 sequence (P51449 269-508 limits assumed): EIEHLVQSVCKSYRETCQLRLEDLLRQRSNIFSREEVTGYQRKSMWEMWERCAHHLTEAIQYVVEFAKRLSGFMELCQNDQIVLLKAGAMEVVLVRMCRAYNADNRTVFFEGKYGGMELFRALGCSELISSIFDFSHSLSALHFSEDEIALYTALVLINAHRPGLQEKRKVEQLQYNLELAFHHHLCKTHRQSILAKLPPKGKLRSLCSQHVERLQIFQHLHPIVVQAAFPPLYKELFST
Assay: RORγ-Ligand Binding Domain TR-FRET Assay
Assay type: biochemical
Details: Table 8, indazoles
Experimental: HIS-tagged RORγ-LBD was recombinantly expressed in SF9 cells using a baculovirus expression system. The protein was not purified. Cells were lysed and the lysate was used as a source for RORγ-LBD for the assay. A 1:80 dilution of RORγ-LBD lysate in assay buffer (25 mM HEPES pH 7.0, 100 mM NaCl, 0.01% Tween, 0.1% BSA) was prepared and 5 μL was added to each well (RORγ-LBD final concentration ˜10 nM). Control wells received lysate from SF9 cells not expressing RORγ-LBD.
Compounds to be tested were diluted to 100× final test concentration in DMSO and further diluted to 4× final test concentration using assay buffer to provide the test compound mixture. An aliquot (5 μL) of the test compound mixture was added to each well.
A 4× stock of biotinylated-LXXLL peptide from SRC1-2 (Biotin-[…]) was prepared in assay buffer and a 5 μL aliquot added to each well (450 nM final concentration). A 4× solution of europium tagged anti-HIS antibody (2 nM final concentration) and APC conjugated streptavidin (60 nM final concentration) were prepared and a 5 μL aliquot added to each well.
The final assay mixture was incubated for 4 hours to overnight, and the fluorescence signal was measured on an Envision plate reader: (Excitation filter=340 nm; APC emission=665 nm; Europium emission=615 nm; dichroic mirror=D400/D630; delay time=100 μs, integration time=200 μs).
IC50 values for test compounds were calculated from the quotient of the fluorescence signal at 665 nm divided by the fluorescence signal at 615 nm using GraphPad Prism software.

SMILES | IC50
O=C(Nc1ccc2cnn(S(=O)(=O)Cc3ccc(Cl)cc3)c2c1)c1c(F)cccc1Cl [Compound V-92] | < 15 µM
O=C(Nc1ccc2cnn(S(=O)(=O)c3ccc(Br)cc3)c2c1)c1c(F)cccc1Cl [Compound V-98] | < 15 µM
CC(C)(C)c1cccc(S(=O)(=O)n2ncc3ccc(NC(=O)c4c(F)cccc4F)cc32)c1 [Compound V-57] | < 15 µM
Cc1ccc(F)cc1S(=O)(=O)n1ncc2ccc(NC(=O)c3c(F)cccc3Cl)cc21 [Compound V-165] | < 15 µM
Cc1nn(C(F)F)cc1S(=O)(=O)n1ncc2ccc(NC(=O)c3c(F)cccc3C(F)(F)F)cc21 [Compound V-43] | < 15 µM
Cc1cccc(S(=O)(=O)n2ncc3ccc(NC(=O)c4c(F)cccc4F)cc32)c1 [Compound V-60] | < 15 µM
O=C(Nc1ccc2cnn(S(=O)(=O)Cc3ccccc3)c2c1)c1c(F)cccc1Cl [Compound V-155] | < 15 µM
O=C(Nc1ccc2cnn(S(=O)(=O)c3ccc(F)c(Cl)c3)c2c1)c1c(F)cccc1Cl [Compound V-76] | < 15 µM
O=C(Nc1ccc2cnn(S(=O)(=O)c3ccc(Cl)cc3)c2c1)c1c(F)cccc1Cl [Compound V-156] | < 15 µM
O=C(Nc1ccc2cnn(S(=O)(=O)c3ccc(F)c(C(F)(F)F)c3)c2c1)c1c(F)cccc1Cl [Compound V-81] | < 15 µM
CC(=O)c1cccc(S(=O)(=O)n2ncc3ccc(NC(=O)Cc4ccc(F)c(F)c4)cc32)c1 [Compound V-19] | < 15 µM
O=C(Nc1ccc2cnn(S(=O)(=O)c3cccc(C(F)(F)F)c3)c2c1)c1c(F)cccc1F [Compound V-64] | < 15 µM
Cc1ccc(S(=O)(=O)n2ncc3ccc(NC(=O)c4c(F)cccc4Cl)cc32)c(C)c1 [Compound V-103] | < 15 µM
CC(=O)c1cccc(S(=O)(=O)n2ncc3ccc(NC(=O)Cc4ccc(F)cc4)cc32)c1 [Compound V-24] | < 15 µM
O=C(Nc1ccc2cnn(S(=O)(=O)c3cccc(Cl)c3)c2c1)c1c(Cl)cccc1C(F)(F)F [Compound V-39] | < 15 µM
O=C(Nc1ccc2cnn(S(=O)(=O)c3cc(F)cc(F)c3)c2c1)c1c(F)cccc1Cl [Compound V-114] | < 15 µM
COC(=O)c1ccc(S(=O)(=O)n2ncc3ccc(NC(=O)c4c(F)cccc4Cl)cc32)o1 [Compound V-151] | < 15 µM
O=C(Nc1ccc2cnn(S(=O)(=O)Cc3cccc(Cl)c3)c2c1)c1c(F)cccc1Cl [Compound V-86] | < 15 µM
COc1ccc(Br)cc1S(=O)(=O)n1ncc2ccc(NC(=O)c3c(F)cccc3Cl)cc21 [Compound V-83] | < 15 µM
CC(C)(C)c1cccc(S(=O)(=O)n2ncc3ccc(NC(=O)c4c(Cl)cccc4C(F)(F)F)cc32)c1 [Compound V-34] | < 15 µM

More lines, now with the values ahead:

IC50 | SMILES
< 15 µM | C=Cc1nn(S(=O)(=O)c2cccc(C(F)(F)F)c2)c2cc(NC(=O)c3c(F)cccc3Cl)ccc12 [Compound 9, 2-Chloro-6-fluoro-N-[1-(3-trifluoromethylbenzenesulfonyl)-3-vinyl-1H-indazol-6-yl]benzamide]
< 15 µM | O=C(Cc1ccc(Cl)cc1)Nc1ccc2cnn(S(=O)(=O)c3cccc(OC(F)F)c3)c2c1 [Compound V-29]
< 15 µM | Cc1cccc(F)c1C(=O)Nc1ccc2cnn(S(=O)(=O)c3cccc(C(F)(F)F)c3)c2c1 [Compound V-1]
< 15 µM | O=C(Nc1ccc2cnn(S(=O)(=O)Cc3ccc(C(F)(F)F)cc3)c2c1)c1c(Cl)cccc1C(F)(F)F [Compound V-38]
< 15 µM | CC(C)(C)c1cccc(S(=O)(=O)n2ncc3ccc(NC(=O)c4c(F)cccc4C(F)(F)F)cc32)c1 [Compound V-11]
< 15 µM | O=C(Nc1ccc2cnn(S(=O)(=O)c3cccc(C(F)(F)F)c3)c2c1)c1c(Cl)cccc1C(F)(F)F [Compound V-42]
< 15 µM | O=C(Nc1ccc2cnn(S(=O)(=O)c3ccccc3Br)c2c1)c1c(F)cccc1Cl [Compound V-84]
< 15 µM | Cc1c(F)cccc1S(=O)(=O)n1ncc2ccc(NC(=O)c3c(F)cccc3Cl)cc21 [Compound V-102]
< 15 µM | O=C(Nc1ccc2cnn(S(=O)(=O)Cc3cccc(C(F)(F)F)c3)c2c1)c1c(F)cccc1Cl [Compound V-137]
< 15 µM | O=C(Nc1ccc2cnn(S(=O)(=O)c3cccc(C(F)(F)F)c3)c2c1)c1c(Cl)cccc1Cl [Compound V-75]
< 15 µM | O=C(Nc1ccc2cnn(S(=O)(=O)c3cccc(OC(F)(F)F)c3)c2c1)c1c(F)cccc1C(F)(F)F [Compound V-50]
< 15 µM | O=C(Nc1ccc2cnn(S(=O)(=O)c3ccc(F)c(C(F)(F)F)c3)c2c1)c1c(F)cccc1F [Compound V-56]
< 15 µM | O=C(Nc1ccc2cnn(S(=O)(=O)c3ccc(F)c(C(F)(F)F)c3)c2c1)c1c(Cl)cccc1Cl [Compound V-66]
< 15 µM | O=C(Nc1ccc2cnn(S(=O)(=O)c3ccc(F)cc3Cl)c2c1)c1c(F)cccc1Cl [Compound V-166]
< 15 µM | Cc1cc(C)cc(S(=O)(=O)n2ncc3ccc(NC(=O)c4c(F)cccc4Cl)cc32)c1 [Compound V-123]
< 15 µM | O=C(Nc1ccc2cnn(S(=O)(=O)c3ccc(F)c(F)c3)c2c1)c1c(F)cccc1Cl [Compound V-170]
< 15 µM | Cc1ncc(CC(=O)Nc2ccc3cnn(S(=O)(=O)c4cccc(OC(F)F)c4)c3c2)s1 [Compound V-3]
< 15 µM | COC(=O)c1ccc(S(=O)(=O)n2ncc3ccc(NC(=O)c4c(F)cccc4Cl)cc32)cc1 [Compound V-109]
< 15 µM | O=C(Nc1ccc2cnn(S(=O)(=O)c3cc(Cl)ccc3F)c2c1)c1c(F)cccc1Cl [Compound V-169]
< 15 µM | O=C(Nc1ccc2cnn(S(=O)(=O)c3cccc(OC(F)F)c3)c2c1)c1c(F)cccc1F [Compound V-58]
< 15 µM | CC(=O)Nc1ccc(S(=O)(=O)n2ncc3ccc(NC(=O)c4c(F)cccc4Cl)cc32)cc1Cl [Compound V-149]
< 15 µM | COC(=O)c1cc(S(=O)(=O)n2ncc3ccc(NC(=O)c4c(F)cccc4Cl)cc32)oc1C [Compound V-150]

Same assay, conditions: benzoxazines, Table 9

IC50 | SMILES
< 15 µM | C[C@H]1CN(S(=O)(=O)c2cccc(C#N)c2)c2cc(NC(=O)c3c(F)cccc3C(F)(F)F)ccc2O1 [VI-4]
< 15 µM | N#Cc1cccc(S(=O)(=O)N2C[C@@H](CO)Oc3ccc(NC(=O)c4c(F)cccc4Cl)cc32)c1 [VI-59]
< 15 µM | C[C@H](O)[C@H]1CN(S(=O)(=O)c2ccc(F)cc2)c2cc(NC(=O)c3c(Cl)cccc3C(F)(F)F)ccc2O1 [VI-16]
< 15 µM | C[C@@H](O)[C@H]1CN(S(=O)(=O)c2ccc(F)cc2)c2cc(NC(=O)c3c(F)cccc3Cl)ccc2O1 [VI-17]
< 15 µM | CCCNCC1CN(S(=O)(=O)c2ccc(F)cc2)c2cc(NC(=O)c3c(F)cccc3Cl)ccc2O1 (stereo not shown) [VI-33]
< 15 µM | O=C(Nc1ccc2c(c1)N(S(=O)(=O)c1ccc(F)cc1)CC(C(F)(F)F)O2)c1c(F)cccc1F (stereo not shown) [VI-111]
< 15 µM | N#Cc1cccc(S(=O)(=O)N2C[C@H](CO)Oc3ccc(NC(=O)Cc4ccc(Cl)cc4)cc32)c1 [VI-61]
< 15 µM | C[C@H]1CN(S(=O)(=O)c2cccc(C#N)c2)c2cc(NC(=O)c3c(F)cccc3F)ccc2O1 [VI-2]
< 15 µM | O=C(Nc1ccc2c(c1)N(S(=O)(=O)c1ccc(Cl)cc1)C[C@@H](CO)O2)c1c(F)cccc1F [VI-55]
< 15 µM | N#Cc1cccc(S(=O)(=O)N2C[C@@H](CO)Oc3ccc(NC(=O)c4c(F)cccc4F)cc32)c1 [VI-60]
